Results: PubChem BioAssay (NCI)
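These data come from cells grown in 96-well plates and exposed to compound for 48 hours at five concentrations. The concentration for 50% growth inhibition is given as GI50. TGI: concentration producing complete growth inhibition.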

Assays:
Experiment in all cases: inhibition of tumour cell growth, NCI panel, 48 h
[1] = system: HCT-116 colon
[2] = system: OVCAR-3 ovarian
[3] = system: NCI-H23 lung
[4] = system: HOP-92 NSCLC
[5] = system: PC-3 prostate
[6] = system: KM12 colon
[7] = system: SF-539 CNS
[8] = system: HOP-62 NSCLC
[9] = system: U251 CNS
[10] = system: RXF 393 renal
[11] = system: 786-0 renal
[12] = system: SK-MEL-2 melanoma
[13] = system: SW-620 colon
[14] = system: ACHN renal
[15] = system: SF-295 CNS
[16] = system: RPMI-8226 leukemia
[17] = system: NCI/ADR-RES ovarian
[18] = system: OVCAR-5 ovarian
[19] = system: MOLT-4 leukemia
[20] = system: A498 renal
[21] = system: A549 NSCLC
[22] = system: CAKI-1 renal
[23] = system: DU-145 prostate
[24] = system: NCI-H460 lung
[25] = system: SK-MEL-5 melanoma
[26] = system: IGROV1 ovarian
[27] = system: HCT-15 colon
[28] = system: SK-MEL-28 melanoma
[29] = system: HT29 colon
[30] = system: MDA-MB-231 breast
[31] = system: LOX IMVI melanoma
[32] = system: HCC-2998 colon
[33] = system: BT-549 breast
[34] = system: MCF7 breast
[35] = system: OVCAR-4 ovarian
[36] = system: UACC-257 melanoma
[37] = system: SR leukemia
[38] = system: TK-10 renal
[39] = system: NCI-H226 lung
[40] = system: UACC-62 melanoma
[41] = system: CCRF-CEM leukemia
[42] = system: MDA-MB-435
[43] = system: EKVX NSCLC
[44] = system: SF-268 CNS
[45] = system: K-562 leukemia
[46] = system: OVCAR-8 ovarian
[47] = system: SNB-75 CNS
[48] = system: COLO 205 colon
[49] = system: NCI-H522 lung
[50] = system: SNB-19 CNS
[51] = system: SK-OV-3 ovarian
[52] = system: SN12C renal
[53] = system: UO-31 renal
[54] = system: MALME-3M melanoma
[55] = system: T-47D breast
[56] = system: HL-60(TB) leukemia
[57] = system: M14 melanoma
[58] = system: HS 578T breast

SMILES: COC(=O)c1cc2c3cc(Cl)ccc3[nH]c2c2ncccc12
- GI50 [1]: > 100 µM
- TGI [1]: > 100 µM
- GI50 [2]: > 100 µM
- TGI [2]: > 100 µM
- GI50 [3]: > 100 µM
- TGI [3]: > 100 µM
- GI50 [4]: > 100 µM
- TGI [4]: > 100 µM
- GI50 [5]: > 100 µM
- TGI [5]: > 100 µM
- GI50 [6]: > 100 µM
- TGI [6]: > 100 µM
- GI50 [7]: 51.8 µM
- TGI [7]: > 100 µM
- GI50 [8]: > 100 µM
- TGI [8]: > 100 µM
- GI50 [9]: > 100 µM
- TGI [9]: > 100 µM
- GI50 [10]: > 100 µM
- TGI [10]: > 100 µM
- GI50 [11]: > 100 µM
- TGI [11]: > 100 µM
- GI50 [12]: > 100 µM
- TGI [12]: > 100 µM
- GI50 [13]: > 100 µM
- TGI [13]: > 100 µM
- GI50 [14]: > 100 µM
- TGI [14]: > 100 µM
- GI50 [15]: > 100 µM
- TGI [15]: > 100 µM
- GI50 [16]: > 100 µM
- TGI [16]: > 100 µM
- GI50 [17]: > 100 µM
- TGI [17]: > 100 µM
- GI50 [18]: > 100 µM
- TGI [18]: > 100 µM
- GI50 [19]: > 100 µM
- TGI [19]: > 100 µM
- GI50 [20]: > 100 µM
- TGI [20]: > 100 µM
- GI50 [21]: > 100 µM
- TGI [21]: > 100 µM
- GI50 [22]: > 100 µM
- TGI [22]: > 100 µM
- GI50 [23]: > 100 µM
- TGI [23]: > 100 µM
- GI50 [24]: > 100 µM
- TGI [24]: > 100 µM
- GI50 [25]: > 100 µM
- TGI [25]: > 100 µM
- GI50 [26]: 77.4 µM
- TGI [26]: > 100 µM
- GI50 [27]: > 100 µM
- TGI [27]: > 100 µM
- GI50 [28]: > 100 µM
- TGI [28]: > 100 µM
- GI50 [29]: > 100 µM
- TGI [29]: > 100 µM
- GI50 [30]: > 100 µM
- TGI [30]: > 100 µM
- GI50 [31]: > 100 µM
- TGI [31]: > 100 µM
- GI50 [32]: > 100 µM
- TGI [32]: > 100 µM
- GI50 [33]: > 100 µM
- TGI [33]: > 100 µM
- GI50 [34]: > 100 µM
- TGI [34]: > 100 µM
- GI50 [35]: > 100 µM
- TGI [35]: > 100 µM
- GI50 [36]: > 100 µM
- TGI [36]: > 100 µM
- GI50 [37]: > 100 µM
- TGI [37]: > 100 µM
- GI50 [38]: > 100 µM
- TGI [38]: > 100 µM
- GI50 [39]: > 100 µM
- TGI [39]: > 100 µM
- GI50 [40]: > 100 µM
- TGI [40]: > 100 µM
- GI50 [41]: > 100 µM
- TGI [41]: > 100 µM
- GI50 [42]: > 100 µM
- TGI [42]: > 100 µM
- GI50 [43]: > 100 µM
- TGI [43]: > 100 µM
- GI50 [44]: > 100 µM
- TGI [44]: > 100 µM
- GI50 [45]: > 100 µM
- TGI [45]: > 100 µM
- GI50 [46]: > 100 µM
- TGI [46]: > 100 µM
- GI50 [47]: > 100 µM
- TGI [47]: > 100 µM
- GI50 [48]: > 100 µM
- TGI [48]: > 100 µM
- GI50 [49]: > 100 µM
- TGI [49]: > 100 µM
- GI50 [50]: > 100 µM
- TGI [50]: > 100 µM
- GI50 [51]: > 100 µM
- TGI [51]: > 100 µM
- GI50 [52]: > 100 µM
- TGI [52]: > 100 µM
- GI50 [53]: > 100 µM
- TGI [53]: > 100 µM
- GI50 [54]: > 100 µM
- TGI [54]: > 100 µM
- GI50 [55]: 24.7 µM
- TGI [55]: > 100 µM
- GI50 [56]: > 100 µM
- TGI [56]: > 100 µM

SMILES: COc1ccc(C(=O)c2no[n+]([O-])c2C(=O)c2ccc(OC)cc2)cc1
- GI50 [1]: 1.69 µM
- TGI [1]: 3.05 µM
- GI50 [2]: 1.87 µM
- TGI [2]: 3.31 µM
- GI50 [3]: 2.94 µM
- TGI [3]: 8.74 µM
- GI50 [4]: 1.72 µM
- TGI [4]: 3.96 µM
- GI50 [5]: 5.21 µM
- TGI [5]: 16.8 µM
- GI50 [6]: 8.91 µM
- TGI [6]: 22.4 µM
- GI50 [7]: 2.19 µM
- TGI [7]: 4.97 µM
- GI50 [8]: 15.2 µM
- TGI [8]: 29.3 µM
- GI50 [9]: 2.53 µM
- TGI [9]: 7.07 µM
- GI50 [10]: 2.25 µM
- TGI [10]: 5.93 µM
- GI50 [11]: 2.62 µM
- TGI [11]: 6.32 µM
- GI50 [12]: 6.59 µM
- TGI [12]: 23.1 µM
- GI50 [13]: 1.89 µM
- TGI [13]: 3.42 µM
- GI50 [14]: 1.9 µM
- TGI [14]: 3.4 µM
- GI50 [15]: 17.8 µM
- TGI [15]: 34.7 µM
- GI50 [16]: 2.06 µM
- TGI [16]: 4.85 µM
- GI50 [17]: 10.7 µM
- TGI [17]: 28.7 µM
- GI50 [18]: 10.6 µM
- TGI [18]: 25.7 µM
- GI50 [19]: 1.93 µM
- TGI [19]: 4.25 µM
- GI50 [20]: 15.6 µM
- TGI [20]: 29.2 µM
- GI50 [21]: 17.2 µM
- TGI [21]: 34.4 µM
- GI50 [22]: 1.9 µM
- TGI [22]: 4 µM
- GI50 [23]: 14.5 µM
- TGI [23]: 27.6 µM
- GI50 [24]: 17.2 µM
- TGI [24]: 33.5 µM
- GI50 [25]: 12.6 µM
- TGI [25]: 25.1 µM
- GI50 [26]: 2.3 µM
- TGI [26]: 5.53 µM
- GI50 [27]: 3.98 µM
- TGI [27]: 14.9 µM
- GI50 [28]: 9.03 µM
- TGI [28]: 22.1 µM
- GI50 [29]: 2.32 µM
- GI50 [30]: 2.77 µM
- TGI [30]: 8.16 µM
- GI50 [31]: 1.14 µM
- TGI [31]: 2.53 µM
- GI50 [32]: 17.5 µM
- TGI [32]: 31.6 µM
- GI50 [33]: 4.84 µM
- TGI [33]: 17.2 µM
- GI50 [34]: 4.42 µM
- TGI [34]: 18.2 µM
- GI50 [35]: 2.36 µM
- TGI [35]: 6.26 µM
- GI50 [36]: 3.46 µM
- TGI [36]: 10.4 µM
- GI50 [37]: 0.726 µM
- TGI [37]: 3.22 µM
- GI50 [38]: 1.41 µM
- TGI [38]: 2.82 µM
- GI50 [39]: 25.8 µM
- TGI [39]: > 64.3 µM
- GI50 [40]: 10.3 µM
- TGI [40]: 23.9 µM
- GI50 [42]: 6.72 µM
- TGI [42]: 22.9 µM
- GI50 [43]: 7.54 µM
- TGI [43]: 22.5 µM
- GI50 [44]: 3.11 µM
- TGI [44]: 7.98 µM
- GI50 [57]: 3.5 µM
- TGI [57]: 11.7 µM
- GI50 [45]: 2.36 µM
- TGI [45]: 7.17 µM
- GI50 [46]: 2.67 µM
- TGI [46]: 6.6 µM
- GI50 [47]: 3.03 µM
- TGI [47]: 9.26 µM
- GI50 [48]: 1.77 µM
- TGI [48]: 3.37 µM
- GI50 [49]: 0.205 µM
- TGI [49]: 0.429 µM
- GI50 [50]: 42.2 µM
- TGI [50]: > 100 µM
- GI50 [51]: 18 µM
- TGI [51]: 32 µM
- GI50 [52]: 9.06 µM
- TGI [52]: 22.1 µM
- GI50 [58]: 17.8 µM
- TGI [58]: 51.4 µM
- GI50 [53]: 0.588 µM
- TGI [53]: 1.17 µM
- GI50 [54]: 0.82 µM
- TGI [54]: 3.07 µM
- GI50 [56]: 2.08 µM
- TGI [56]: 4.37 µM
